One block for each molecule: values may come before it.
How the values were obtained:
[1] = target: Calcium/calmodulin-dependent protein kinase type II subunit gamma (Homo sapiens) (UniProt Q13555); assay: Inhibition of human recombinant CaMK2g at 500 nM related to control ULK1
[2] = target: T1, Eukaryotic translation initiation factor 2-alpha kinase 3 (Homo sapiens) (UniProt Q9NZJ5); assay: Inhibition of human recombinant PEK at 500 nM in presence of ATP by radiometric assay relative to control
T1 sequence (whole entry): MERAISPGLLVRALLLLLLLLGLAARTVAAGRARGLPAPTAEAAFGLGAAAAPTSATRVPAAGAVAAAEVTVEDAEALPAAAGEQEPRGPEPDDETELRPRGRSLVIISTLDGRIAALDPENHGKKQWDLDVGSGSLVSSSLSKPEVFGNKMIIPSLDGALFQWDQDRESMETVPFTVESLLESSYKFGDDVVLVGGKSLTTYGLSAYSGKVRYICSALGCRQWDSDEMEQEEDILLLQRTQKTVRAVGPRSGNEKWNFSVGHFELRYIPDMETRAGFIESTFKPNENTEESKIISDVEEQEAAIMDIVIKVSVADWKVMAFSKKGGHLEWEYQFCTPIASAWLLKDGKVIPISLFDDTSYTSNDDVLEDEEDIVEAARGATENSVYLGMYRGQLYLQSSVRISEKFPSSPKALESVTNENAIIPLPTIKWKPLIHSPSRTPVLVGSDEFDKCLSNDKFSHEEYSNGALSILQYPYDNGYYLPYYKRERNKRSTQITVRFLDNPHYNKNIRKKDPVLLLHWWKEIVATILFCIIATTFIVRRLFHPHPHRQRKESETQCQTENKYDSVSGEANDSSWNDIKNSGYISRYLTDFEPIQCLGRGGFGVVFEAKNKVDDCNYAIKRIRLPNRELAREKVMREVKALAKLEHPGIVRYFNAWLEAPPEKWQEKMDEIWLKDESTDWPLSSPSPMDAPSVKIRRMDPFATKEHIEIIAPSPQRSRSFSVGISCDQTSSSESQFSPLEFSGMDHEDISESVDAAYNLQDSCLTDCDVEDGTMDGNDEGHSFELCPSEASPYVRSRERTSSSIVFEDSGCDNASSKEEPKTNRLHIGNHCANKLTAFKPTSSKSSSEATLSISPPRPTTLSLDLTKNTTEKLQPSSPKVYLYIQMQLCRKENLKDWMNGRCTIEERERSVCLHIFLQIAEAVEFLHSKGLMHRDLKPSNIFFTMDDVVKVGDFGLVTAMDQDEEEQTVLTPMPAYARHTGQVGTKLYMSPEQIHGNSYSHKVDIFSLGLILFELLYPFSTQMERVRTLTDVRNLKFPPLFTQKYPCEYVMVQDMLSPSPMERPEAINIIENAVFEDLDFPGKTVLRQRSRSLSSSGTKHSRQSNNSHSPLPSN

[3] = target: Macrophage-stimulating protein receptor (Homo sapiens) (UniProt Q04912); assay: Inhibition of human recombinant RON at 15 nM related to control ULK1
Homo sapiens = organism: Homo sapiens; assay: Inhibition of human recombinant KHS1 at 40 nM related to control ULK1
[4] = target: T2, Serine/threonine-protein kinase DCLK3 (Homo sapiens) (UniProt Q9C098); assay: Inhibition of human recombinant DCAMKL3 at 40 nM related to control ULK1
T2 sequence (whole entry): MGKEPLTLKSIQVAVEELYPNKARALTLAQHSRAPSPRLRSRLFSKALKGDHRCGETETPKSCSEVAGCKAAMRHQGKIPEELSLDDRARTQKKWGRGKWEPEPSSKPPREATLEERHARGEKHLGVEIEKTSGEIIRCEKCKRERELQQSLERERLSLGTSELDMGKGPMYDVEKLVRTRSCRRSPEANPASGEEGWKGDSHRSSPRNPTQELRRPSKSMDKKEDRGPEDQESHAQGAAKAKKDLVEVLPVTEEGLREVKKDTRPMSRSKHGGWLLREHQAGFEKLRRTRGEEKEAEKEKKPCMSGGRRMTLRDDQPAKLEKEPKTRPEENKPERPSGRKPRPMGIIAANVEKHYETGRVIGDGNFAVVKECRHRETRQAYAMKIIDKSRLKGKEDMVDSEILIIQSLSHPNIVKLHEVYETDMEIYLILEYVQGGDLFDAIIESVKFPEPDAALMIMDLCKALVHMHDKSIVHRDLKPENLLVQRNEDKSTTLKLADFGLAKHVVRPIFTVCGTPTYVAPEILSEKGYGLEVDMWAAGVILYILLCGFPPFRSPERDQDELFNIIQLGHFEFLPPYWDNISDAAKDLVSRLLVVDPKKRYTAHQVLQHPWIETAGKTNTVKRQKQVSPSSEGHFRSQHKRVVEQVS

[5] = target: T3, Serine/threonine-protein kinase ULK2 (Homo sapiens) (UniProt Q8IYT8); assay: Inhibition of human recombinant ULK2 at 40 nM in presence of ATP by radiometric assay relative to control
T3 sequence (whole entry): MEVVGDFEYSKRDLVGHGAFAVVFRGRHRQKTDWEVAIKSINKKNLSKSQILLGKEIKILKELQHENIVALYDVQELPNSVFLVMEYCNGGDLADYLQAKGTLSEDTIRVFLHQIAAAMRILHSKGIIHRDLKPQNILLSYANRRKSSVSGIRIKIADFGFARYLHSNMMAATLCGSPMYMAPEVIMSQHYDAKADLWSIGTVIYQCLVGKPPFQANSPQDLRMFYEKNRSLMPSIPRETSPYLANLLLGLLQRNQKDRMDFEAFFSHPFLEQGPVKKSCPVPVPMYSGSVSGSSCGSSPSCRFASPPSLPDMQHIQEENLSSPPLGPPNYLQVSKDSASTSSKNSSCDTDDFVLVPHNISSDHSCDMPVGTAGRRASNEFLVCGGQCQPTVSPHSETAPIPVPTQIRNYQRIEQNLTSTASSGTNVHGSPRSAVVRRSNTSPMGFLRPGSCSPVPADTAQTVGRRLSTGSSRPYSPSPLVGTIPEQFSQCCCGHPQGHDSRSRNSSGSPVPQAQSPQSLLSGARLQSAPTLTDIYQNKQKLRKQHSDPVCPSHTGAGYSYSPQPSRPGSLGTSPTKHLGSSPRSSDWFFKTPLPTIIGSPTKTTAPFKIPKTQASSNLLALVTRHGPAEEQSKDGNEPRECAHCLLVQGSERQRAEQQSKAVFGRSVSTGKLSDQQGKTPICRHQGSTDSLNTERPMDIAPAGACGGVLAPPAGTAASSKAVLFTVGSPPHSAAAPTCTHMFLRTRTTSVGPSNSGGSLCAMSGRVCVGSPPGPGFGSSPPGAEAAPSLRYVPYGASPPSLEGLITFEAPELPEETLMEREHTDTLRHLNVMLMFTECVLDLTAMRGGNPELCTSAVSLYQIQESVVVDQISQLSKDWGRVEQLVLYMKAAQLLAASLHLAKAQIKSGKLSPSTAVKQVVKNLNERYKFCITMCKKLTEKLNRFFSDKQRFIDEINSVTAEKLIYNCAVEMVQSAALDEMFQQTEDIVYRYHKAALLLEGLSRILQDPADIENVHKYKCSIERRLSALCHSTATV

Chain of Calcium/calmodulin-dependent protein kinase type II subunit gamma (Homo sapiens) (Q13555 whole entry): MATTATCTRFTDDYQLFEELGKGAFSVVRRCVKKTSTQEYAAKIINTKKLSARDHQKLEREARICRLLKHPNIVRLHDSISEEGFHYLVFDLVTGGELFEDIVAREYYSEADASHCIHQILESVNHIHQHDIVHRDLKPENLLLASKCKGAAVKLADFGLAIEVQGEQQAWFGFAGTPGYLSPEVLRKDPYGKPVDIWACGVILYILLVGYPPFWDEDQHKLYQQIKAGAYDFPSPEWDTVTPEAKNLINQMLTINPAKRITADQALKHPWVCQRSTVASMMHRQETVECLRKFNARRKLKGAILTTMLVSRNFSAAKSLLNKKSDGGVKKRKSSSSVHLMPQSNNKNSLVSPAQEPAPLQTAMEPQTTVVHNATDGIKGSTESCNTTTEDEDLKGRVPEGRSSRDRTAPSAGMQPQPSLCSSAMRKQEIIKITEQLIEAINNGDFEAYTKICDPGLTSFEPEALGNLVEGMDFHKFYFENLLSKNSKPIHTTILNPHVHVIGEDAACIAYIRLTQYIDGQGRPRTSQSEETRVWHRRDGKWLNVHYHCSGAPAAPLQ
Chain of Macrophage-stimulating protein receptor (Homo sapiens) (Q04912 25-304 limits assumed): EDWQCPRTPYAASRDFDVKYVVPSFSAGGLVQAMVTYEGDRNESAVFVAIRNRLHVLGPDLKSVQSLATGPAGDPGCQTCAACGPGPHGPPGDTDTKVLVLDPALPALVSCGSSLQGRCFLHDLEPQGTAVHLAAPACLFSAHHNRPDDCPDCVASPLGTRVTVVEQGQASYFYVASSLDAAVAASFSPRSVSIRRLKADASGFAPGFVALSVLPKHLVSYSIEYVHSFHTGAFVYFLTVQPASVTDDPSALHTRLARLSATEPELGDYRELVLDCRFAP
Chain of Macrophage-stimulating protein receptor (Homo sapiens) (Q04912 310-1400 limits assumed): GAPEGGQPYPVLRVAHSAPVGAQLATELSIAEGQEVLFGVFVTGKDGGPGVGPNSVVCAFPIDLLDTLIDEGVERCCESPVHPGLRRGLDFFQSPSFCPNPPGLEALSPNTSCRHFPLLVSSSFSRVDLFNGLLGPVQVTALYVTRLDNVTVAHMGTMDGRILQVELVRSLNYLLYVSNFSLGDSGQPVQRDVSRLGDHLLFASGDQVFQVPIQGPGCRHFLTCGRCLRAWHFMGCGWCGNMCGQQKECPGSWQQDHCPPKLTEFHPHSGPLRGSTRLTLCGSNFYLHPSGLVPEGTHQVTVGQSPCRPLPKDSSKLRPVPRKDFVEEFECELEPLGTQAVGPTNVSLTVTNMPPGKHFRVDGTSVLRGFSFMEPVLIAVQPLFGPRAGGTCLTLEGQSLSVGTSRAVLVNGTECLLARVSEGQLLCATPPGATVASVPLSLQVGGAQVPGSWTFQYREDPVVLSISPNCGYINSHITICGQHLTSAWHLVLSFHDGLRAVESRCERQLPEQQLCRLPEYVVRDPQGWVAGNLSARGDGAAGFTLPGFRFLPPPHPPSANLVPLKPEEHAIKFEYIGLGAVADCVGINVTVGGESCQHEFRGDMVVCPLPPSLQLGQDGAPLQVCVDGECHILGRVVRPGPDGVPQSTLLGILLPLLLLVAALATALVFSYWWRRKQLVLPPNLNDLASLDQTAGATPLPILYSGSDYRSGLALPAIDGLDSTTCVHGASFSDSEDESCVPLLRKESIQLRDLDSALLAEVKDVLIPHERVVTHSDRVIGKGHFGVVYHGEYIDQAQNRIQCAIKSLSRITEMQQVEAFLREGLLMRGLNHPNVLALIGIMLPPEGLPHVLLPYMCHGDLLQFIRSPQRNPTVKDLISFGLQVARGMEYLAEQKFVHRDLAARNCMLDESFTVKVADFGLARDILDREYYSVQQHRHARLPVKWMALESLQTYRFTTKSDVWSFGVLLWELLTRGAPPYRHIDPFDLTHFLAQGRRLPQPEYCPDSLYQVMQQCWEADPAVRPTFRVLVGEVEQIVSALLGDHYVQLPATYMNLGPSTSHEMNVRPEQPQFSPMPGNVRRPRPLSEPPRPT

fold change (FC) [1]: 0.03
inhibition [2]: 0%
SMILES: CNC(=O)c1ccccc1Oc1nc(Nc2cc(OC)c(OC)c(OC)c2)ncc1Br

fold change (FC) [3]: 0.02
SMILES: CC(C)[C@H](NC(=O)c1cc(-c2cnn3cc(-c4ccc(OCCN5CCCCC5)cc4)cnc23)cs1)C(F)(F)F

fold change (FC) (Homo sapiens): 0
fold change (FC) [4]: 0.03
inhibition [5]: 46%
SMILES: O=C(N[C@@H](C1CC1)C(F)(F)F)c1cc(-c2cnn3cc(-c4ccc(F)cc4)cnc23)cs1

From ChEMBL document CHEMBL5653631, “A Potent and Selective ULK1 Inhibitor Suppresses Autophagy and Sensitizes Cancer Cells to Nutrient Stress” (iScience, 2018)
